Key:
cdk4/D = cdk4/D (Homo sapiens, UniProt P11802); test: Cyclin-Dependent Kinase 4 (cdk4) Assay; format: biochemical; details: read-out: cdk4/D IC50
cdc2/cyclinB = cdc2/cyclinB (Homo sapiens, UniProt P06493); test: Cyclin-Dependent Kinase Assay cdc2/cyclinB
cdk2/cyclinE = cdk2/cyclinE (Homo sapiens, UniProt P24941); test: Cyclin-Dependent Kinase Assay cdk2/cyclinE; details: cdk2/E IC50
Cdk5/p25 = Cdk5/p25 (Homo sapiens, UniProt Q00535); test: Cyclin-Dependent Kinase 5 High Throughput Screening (cdk5-HTS) Assay; format: biochemical; details: high throughput screen
How it was run: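 IC50 determined from 33P incorporation into GST-RbCOOH captured on glutathione plates and read by scintillation counting. Reaction: 1.0 μg/mL Cdk5/p25, 20 μM [γ33P]ATP, pH 7.4 Tris buffer with MgCl2 and DTT, 30 min at room temperature, stopped with EDTA.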

cdk2/cyclinA = cdk2/cyclinA (Homo sapiens, UniProt P24941); test: Cyclin-Dependent Kinase Assay cdk2/cyclinA; details: cdk2/A IC50

Chain of cdc2/cyclinB (P06493 whole entry): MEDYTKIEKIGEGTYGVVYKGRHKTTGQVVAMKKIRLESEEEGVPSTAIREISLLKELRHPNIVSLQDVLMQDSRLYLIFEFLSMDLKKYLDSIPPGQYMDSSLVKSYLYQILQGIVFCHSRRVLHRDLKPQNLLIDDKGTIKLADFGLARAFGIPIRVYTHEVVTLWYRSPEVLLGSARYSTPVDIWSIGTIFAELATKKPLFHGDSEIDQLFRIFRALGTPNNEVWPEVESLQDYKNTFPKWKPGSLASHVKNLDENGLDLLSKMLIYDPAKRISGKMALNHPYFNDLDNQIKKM
Chain of cdc2/cyclinB (P14635 whole entry, further chain): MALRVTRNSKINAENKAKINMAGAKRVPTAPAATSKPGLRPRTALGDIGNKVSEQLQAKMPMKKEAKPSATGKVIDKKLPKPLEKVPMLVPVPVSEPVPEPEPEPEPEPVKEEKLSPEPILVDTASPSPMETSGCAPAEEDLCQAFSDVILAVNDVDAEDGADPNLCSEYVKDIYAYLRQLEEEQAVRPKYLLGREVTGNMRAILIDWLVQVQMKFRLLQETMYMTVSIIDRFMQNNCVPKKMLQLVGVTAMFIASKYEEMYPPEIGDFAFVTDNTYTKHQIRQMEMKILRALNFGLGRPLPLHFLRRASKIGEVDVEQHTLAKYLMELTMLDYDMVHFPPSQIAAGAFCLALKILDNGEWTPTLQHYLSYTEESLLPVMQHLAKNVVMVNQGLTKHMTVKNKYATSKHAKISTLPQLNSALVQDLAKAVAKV
Chain of cdk4/D (P11802 whole entry): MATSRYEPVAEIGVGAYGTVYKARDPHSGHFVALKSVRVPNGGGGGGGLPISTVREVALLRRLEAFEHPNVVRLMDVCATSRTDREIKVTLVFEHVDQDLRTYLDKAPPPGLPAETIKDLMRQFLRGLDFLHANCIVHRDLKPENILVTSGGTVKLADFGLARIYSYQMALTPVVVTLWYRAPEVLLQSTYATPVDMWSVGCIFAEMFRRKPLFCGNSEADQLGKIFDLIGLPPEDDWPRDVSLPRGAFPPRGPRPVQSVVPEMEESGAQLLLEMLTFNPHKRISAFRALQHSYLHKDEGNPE
Chain of cdk4/D (P24385 whole entry, further chain): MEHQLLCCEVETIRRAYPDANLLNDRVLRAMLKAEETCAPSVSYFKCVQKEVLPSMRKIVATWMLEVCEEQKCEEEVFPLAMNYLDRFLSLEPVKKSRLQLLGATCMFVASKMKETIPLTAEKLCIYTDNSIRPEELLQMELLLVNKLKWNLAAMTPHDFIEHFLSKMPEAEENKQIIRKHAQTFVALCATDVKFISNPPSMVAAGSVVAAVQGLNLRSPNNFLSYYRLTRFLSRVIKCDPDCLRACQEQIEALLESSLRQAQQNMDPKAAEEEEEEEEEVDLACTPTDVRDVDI

SMILES | IC50 (cdk4/D) | IC50 (cdc2/cyclinB) | IC50 (cdk2/cyclinE) | IC50 (Cdk5/p25) | IC50 (cdk2/cyclinA)
CCCCn1c(=O)ccc2cnc(Nc3ccc(F)c(F)c3)nc21 [Example 397, 8-Butyl-2-(3,4-difluoro-phenylamino)-8H-pyrido[2,3-d]pyrimidin-7-one] | 250 nM | 290 nM | 75 nM | 81 nM | 310 nM
CCn1c(=O)ccc2cnc(Nc3ccc(O)cc3F)nc21 [Example 289, 8-Ethyl-2-(2-fluoro-4-hydroxy-phenylamino)-8H-pyrido[2,3-d]pyrimidin-7-one] | 3250 nM | 1250 nM | 1160 nM | 720 nM | 2000 nM
Cc1ccc(Nc2ncc3ccc(=O)n(C4CCCC4)c3n2)cc1NS(C)(=O)=O [Example 555, N-[5-(8-Cyclopentyl-7-oxo-7,8-dihydro-pyrido[2,3-d]pyrimidin-2-ylamino)-2-methyl-phenyl]-methanesulfonamide] | 69 nM | 220 nM | 99 nM | 60 nM | 160 nM
O=c1ccc2cnc(Nc3cccc(C(F)(F)F)c3)nc2n1C1CCCC1 [Example 530, 8-Cyclopentyl-2-(3-trifluoromethyl-phenylamino)-8H-pyrido[2,3-d]pyrimidin-7-one] | 1700 nM | 220 nM | 180 nM | 99 nM | 250 nM
O=c1ccc2cnc(Nc3ccc(O)c(Cl)c3)nc2n1C1CCCC1 [Example 539, 2-(3-Chloro-4-hydroxy-phenylamino)-8-cyclopentyl-8H-pyrido[2,3-d]pyrimidin-7-one] | 23.5 nM | 28 nM | 14.3 nM | 23.5 nM | 33.5 nM
O=c1ccc2cnc(Nc3ccc4nn[nH]c4c3)nc2n1CC(F)(F)F [Example 595, 2-(1H-Benzotriazol-5-ylamino)-8-(2,2,2-trifluoro-ethyl)-8H1-pyrido[2,3-d]pyrimidin-7-one] | 2000 nM | 2000 nM | 510 nM | 155 nM | 1450 nM

Next, values leading:

IC50 (cdk4/D) | IC50 (cdc2/cyclinB) | IC50 (cdk2/cyclinE) | IC50 (Cdk5/p25) | IC50 (cdk2/cyclinA) | SMILES
550 nM | 460 nM | 780 nM | 82 nM | 1800 nM | CCC(C)n1c(=O)ccc2cnc(Nc3cc(Cl)c(Cl)c(Cl)c3)nc21 (stereo not drawn) [Example 461, 8-sec-Butyl-2-(3,4,5-trichloro-phenylamino)-8H-pyrido[2,3-d]pyrimidin-7-one]
54 nM | 300 nM | 110 nM | 66 nM | 590 nM | NS(=O)(=O)c1cccc(Nc2ncc3ccc(=O)n(C4CCCC4)c3n2)c1 [Example 547, 3-(8-Cyclopentyl-7-oxo-7,8-dihydro-pyrido[2,3-d]pyrimidin-2-ylamino)-benzenesulfonamide]
35 nM | 180 nM | 95 nM | 15 nM | 240 nM | CC(C)n1c(=O)ccc2cnc(Nc3cccc(S(N)(=O)=O)c3)nc21 [Example 430, 3-(8-Isopropyl-7-oxo-7,8-dihydro-pyrido[2,3-d]pyrimidin-2-ylamino)-benzenesulfonamide]
350 nM | 86.7 nM | 79.7 nM | 49.2 nM | 753 nM | CCC(CC)n1c(=O)ccc2cnc(Nc3cccc(I)c3)nc21 [Example 490, 8-(1-Ethyl-propyl)-2-(3-iodo-phenylamino)-8H-pyrido[2,3-d]pyrimidin-7-one]
34 nM | 73 nM | 67 nM | 14 nM | 220 nM | CCC(CC)n1c(=O)ccc2cnc(Nc3ccc(OC)c(F)c3)nc21 [Example 505, 8-(1-Ethyl-propyl)-2-(3-fluoro-4-methoxy-phenylamino)-8H-pyrido[2,3-d]pyrimidin-7-one]
1690 nM | 165 nM | 183 nM | 244 nM | 430 nM | CCn1c(=O)ccc2cnc(Nc3ccc(O)c(Cl)c3)nc21 [Example 290, 2-(3-Chloro-4-hydroxy-phenylamino)-8-ethyl-8H1-pyrido[2,3-d]pyrimidin-7-one]
